{"source": "patent US11332459B2", "about": "(TEIJIN PHARMA LIMITED, priority 2017, dated 2022)", "note": "Structures can show the parent of a compound that is named as a salt.", "data": [{"target": "T1, human TRPC6 (Homo sapiens, UniProt Q9Y210)", "T1 construct": "expressed in transfected cells", "T1 sequence (Q9Y210 1-931)": "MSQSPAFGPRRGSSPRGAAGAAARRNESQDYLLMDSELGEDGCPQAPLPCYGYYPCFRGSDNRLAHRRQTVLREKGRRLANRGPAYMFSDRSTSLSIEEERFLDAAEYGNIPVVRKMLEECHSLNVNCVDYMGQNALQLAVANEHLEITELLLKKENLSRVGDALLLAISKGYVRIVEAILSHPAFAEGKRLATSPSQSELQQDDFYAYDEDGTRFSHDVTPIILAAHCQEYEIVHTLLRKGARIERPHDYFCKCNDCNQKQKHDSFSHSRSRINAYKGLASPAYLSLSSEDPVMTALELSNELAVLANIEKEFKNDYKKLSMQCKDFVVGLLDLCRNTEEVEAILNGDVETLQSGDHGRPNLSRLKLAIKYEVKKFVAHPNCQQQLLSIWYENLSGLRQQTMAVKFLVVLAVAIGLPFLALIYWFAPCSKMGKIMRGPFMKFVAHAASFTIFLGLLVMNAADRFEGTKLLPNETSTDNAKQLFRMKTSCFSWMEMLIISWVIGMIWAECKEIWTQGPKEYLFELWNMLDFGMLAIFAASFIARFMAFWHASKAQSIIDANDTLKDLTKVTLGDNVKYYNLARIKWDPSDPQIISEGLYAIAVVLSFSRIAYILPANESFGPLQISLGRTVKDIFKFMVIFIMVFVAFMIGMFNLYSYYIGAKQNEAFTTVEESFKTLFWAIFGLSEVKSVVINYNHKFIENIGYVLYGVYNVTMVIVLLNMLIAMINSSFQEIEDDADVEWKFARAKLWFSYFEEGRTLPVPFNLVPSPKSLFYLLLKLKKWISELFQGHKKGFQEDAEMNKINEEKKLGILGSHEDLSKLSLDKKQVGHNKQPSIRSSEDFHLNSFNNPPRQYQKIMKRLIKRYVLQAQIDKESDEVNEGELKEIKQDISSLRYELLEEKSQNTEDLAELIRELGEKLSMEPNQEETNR", "experiment": "TRPC6 calcium flux assay (FLIPR, OAG-stimulated calcium influx)", "format": "cell-based", "conditions": "HEK293 cells stably transfected with human TRPC6, read-out: hTRPC6 Potency", "summary_of_the_method": "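IC50 derived by plotting background-corrected peak fluorescence (180 s window, normalized to OAG-triggered signal vs buffer) against dose. Stable human TRPC6 HEK293 line was dye-loaded, exposed to compound 25 min, then challenged with 50 uM final OAG in 2 mM Ca2+ HEPES buffer pH 7.2, 0.5% DMSO.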", "units": {"IC50": "nM"}, "values": [{"molecule": "N[C@@H]1CN(c2nc3cc(F)c(F)cc3n2CC(=O)N2CCCCC2)CC[C@H]1F", "note": "[Example 281, 2-(2-((3R,4R)-3-amino-4-fluoro-1-piperidinyl)-5,6-difluoro-1H-benzimidazol-1-yl)-1-(1-piperidinyl)ethanone]", "IC50": 26.9}, {"molecule": "C[C@H](c1ccc(C#N)cn1)n1c(N2CCC[C@H](N)C2)nc2ccccc21", "note": "[Example 295, 6-((R)-1-(2-((S)-3-aminopiperidin-1-yl)-1H-benzo[d]imidazol-1-yl)ethyl)nicotinonitrile hydrochloride]", "IC50": 5.07}, {"molecule": "N#Cc1ccc(Cn2c(N3CCC[C@H](N)C3)nc3ccc(F)cc32)nc1", "note": "[Example 45, (S)-6-((2-(3-aminopiperidin-1-yl)-6-fluoro-1H-benzo[d]imidazol-1-yl)methyl)nicotinonitrile hydrochloride]", "IC50": 2.36}, {"molecule": "N#Cc1ccc(Cn2c(N3CC[C@H](F)[C@H](N)C3)nc3c(F)cc(F)cc32)nc1", "note": "[Example 65, 6-((2-((3R,4S)-3-amino-4-fluoropiperidin-1-yl)-4,6-difluoro-1H-benzo[d]imidazol-1-yl)methyl)nicotinonitrile]", "IC50": 0.598}, {"molecule": "CCNC(=O)Cn1c(N2CC[C@@H](F)[C@H](N)C2)nc2cc(F)c(F)cc21", "note": "[Example 282, 2-(2-((3R,4R)-3-amino-4-fluoro-1-piperidinyl)-5,6-difluoro-1H-benzimidazol-1-yl)-N-ethylacetamide]", "IC50": 150}, {"molecule": "N#Cc1ccc(Cn2c(N3CCC[C@@H](N)C3)nc3ccccc32)cn1", "note": "[Example 292, (R)-5-((2-(3-aminopiperidin-1-yl)-1H-benzo[d]imidazol-1-yl)methyl)picolinonitrile 2,2,2-trifluoroacetate]", "IC50": 62.5}, {"molecule": "C[C@H](c1cc(F)ccc1F)n1c(N2CC[C@@H](F)[C@H](N)C2)nc2cc(F)c(F)cc21", "note": "[Example 334, (3R,4R)-1-(1-((1R)-(2,5-difluorophenyl)ethyl)-5,6-difluoro-1H-benzimidazol-2-yl)-4-fluoro-3-piperidinamine]", "IC50": 3540}, {"molecule": "N#Cc1ccc2c(c1)nc(N1CC[C@H](F)[C@H](N)C1)n2Cc1ncc(Cl)cn1", "note": "[Example 204, 2-((3R,4S)-3-amino-4-fluoropiperidin-1-yl)-1-((5-chloropyrimidin-2-yl)methyl)-1H-benzo[d]imidazole-5-carbonitrile]", "IC50": 4.92}, {"molecule": "N[C@@H]1CN(c2nc3ccc(F)cc3n2CC(=O)N(CC(F)(F)F)C2CC2)CC[C@H]1F", "note": "[Example 662, 2-(2-((3R,4R)-3-amino-4-fluoropiperidin-1-yl)-6-fluoro-1H-benzo[d]imidazol-1-yl)-N-cyclopropyl-N-(2,2,2-trifluoroethyl)acetamide]", "IC50": 283}, {"molecule": "N[C@@H]1CN(c2nc3cc(F)c(F)cc3n2CC(=O)N(CC2CCCO2)C2CCS(=O)(=O)C2)CC[C@H]1F", "note": "(stereo partly drawn) [Example 541, 2-(2-((3R,4R)-3-amino-4-fluoropiperidin-1-yl)-5,6-difluoro-1H-benzo[d]imidazol-1-yl)-N-(1,1-dioxidotetrahydrothiophen-3-yl)-N-((tetrahydrofuran-2-yl)methyl)acetamide]", "IC50": "> 3750"}, {"molecule": "N#Cc1ccc(Cn2c(N3CC[C@@H](F)[C@H](N)C3)nc3ccc(C#N)cc32)cc1", "note": "[Example 158, 2-((3R,4R)-3-amino-4-fluoro-1-piperidinyl)-1-(4-cyanobenzyl)-1H-benzimidazole-6-carbonitrile]", "IC50": 4.71}, {"molecule": "N#Cc1cnc(Cn2c(N3CC[C@@H](F)[C@H](N)C3)nc3cc(F)cc(F)c32)cn1", "note": "[Example 252, 5-((2-((3R,4R)-3-amino-4-fluoro-1-piperidinyl)-5,7-difluoro-1H-benzimidazol-1-yl)methyl)-2-pyrazinecarbonitrile]", "IC50": 8.76}, {"molecule": "N#Cc1ccc(Cn2c(N3CC[C@H](F)[C@H](N)C3)nc3cc(F)cc(F)c32)nc1", "note": "[Example 66, 6-((2-((3R,4S)-3-amino-4-fluoropiperidin-1-yl)-5,7-difluoro-1H-benzo[d]imidazol-1-yl)methyl)nicotinonitrile]", "IC50": 237}, {"molecule": "COc1cc(F)cc2nc(N3CC[C@@H](F)[C@H](N)C3)n(CC(=O)N(C)CC(F)(F)F)c12", "note": "[Example 544, 2-(2-((3R,4R)-3-amino-4-fluoropiperidin-1-yl)-5-fluoro-7-methoxy-1H-benzo[d]imidazol-1-yl)-N-methyl-N-(2,2,2-trifluoroethyl)acetamide]", "IC50": "> 3750"}, {"molecule": "CN(C(=O)Cn1c(N2CC[C@@H](F)[C@H](N)C2)nc2ccc(F)cc21)[C@H]1CCOC1", "note": "[Example 664, 2-(2-((3R,4R)-3-amino-4-fluoropiperidin-1-yl)-6-fluoro-1H-benzo[d]imidazol-1-yl)-N-methyl-N-((S)-tetrahydrofuran-3-yl)acetamide]", "IC50": 555}, {"molecule": "N[C@@H]1CN(c2nc3cc(F)c(F)cc3n2Cc2c(Cl)cccc2Cl)CC[C@H]1F", "note": "[Example 265, (3R,4R)-1-(1-(2,6-dichlorobenzyl)-5,6-difluoro-1H-benzimidazol-2-yl)-4-fluoro-3-piperidinamine]", "IC50": 2860}, {"molecule": "N#Cc1ccc2nc(N3CC[C@@H](F)[C@H](N)C3)n(Cc3ncc(F)cn3)c2c1", "note": "[Example 196, 2-((3R,4R)-3-amino-4-fluoropiperidin-1-yl)-1-((5-fluoropyrimidin-2-yl)methyl)-1H-benzo[d]imidazole-6-carbonitrile]", "IC50": 6.47}, {"molecule": "N[C@@H]1CN(c2nc3cc(F)c(F)cc3n2CC(=O)N2CC3(C2)CC(F)(F)C3)CC[C@H]1F", "note": "[Example 430, 2-(2-((3R,4R)-3-amino-4-fluoropiperidin-1-yl)-5,6-difluoro-1H-benzo[d]imidazol-1-yl)-1-(6,6-difluoro-2-azaspiro[3.3]heptan-2-yl)ethanone]", "IC50": 880}, {"molecule": "N#Cc1cccc(Cn2c(N3CCC[C@@H](N)C3)nc3ccccc32)c1", "note": "[Example 400, (R)-3-((2-(3-aminopiperidin-1-yl)-1H-benzo[d]imidazol-1-yl)methyl)benzonitrile]", "IC50": 16500}, {"molecule": "CCCN(C)C(=O)Cn1c(N2CC[C@@H](F)[C@H](N)C2)nc2cc(F)c(F)cc21", "note": "[Example 616, 2-(2-((3R,4R)-3-amino-4-fluoropiperidin-1-yl)-5,6-difluoro-1H-benzo[d]imidazol-1-yl)-N-methyl-N-propylacetamide]", "IC50": 32.3}, {"molecule": "CN(C)C(=O)Cn1c(N2CC[C@H](F)[C@H](N)C2)nc2cc(Cl)ccc21", "note": "[Example 471, 2-(2-((3R,4S)-3-amino-4-fluoropiperidin-1-yl)-5-chloro-1H-benzo[d]imidazol-1-yl)-N,N-dimethylacetamide]", "IC50": 360}, {"molecule": "COc1ccc(Cn2c(N3CCC[C@@H](N)C3)nc3ccccc32)cc1Cl", "note": "[Example 393, (R)-1-(1-(3-chloro-4-methoxybenzyl)-1H-benzo[d]imidazol-2-yl)piperidin-3-amine]", "IC50": 5050}, {"molecule": "N#Cc1ccc(Cn2c(N3CCC[C@H](N)C3)nc3ccc(Cl)cc32)cc1", "note": "[Example 421, (S)-4-((2-(3-aminopiperidin-1-yl)-6-chloro-1H-benzo[d]imidazol-1-yl)methyl)benzonitrile]", "IC50": 0.54}, {"molecule": "COC(=O)C1CCN(C(=O)Cn2c(N3CC[C@@H](F)[C@H](N)C3)nc3cc(F)c(F)cc32)CC1", "note": "[Example 512, methyl 1-(2-(2-((3R,4R)-3-amino-4-fluoropiperidin-1-yl)-5,6-difluoro-1H-benzo[d]imidazol-1-yl)acetyl)piperidine-4-carboxylate]", "IC50": 162}, {"molecule": "CN(C)C(=O)Cn1c(N2CC[C@@H](F)[C@H](N)C2)nc2cc(C(F)(F)F)ccc21", "note": "[Example 592, 2-(2-((3R,4R)-3-amino-4-fluoropiperidin-1-yl)-5-(trifluoromethyl)-1H-benzo[d]imidazol-1-yl)-N,N-dimethylacetamide]", "IC50": 1730}, {"molecule": "CC1(CN)CCN(c2nc3ccccc3n2Cc2ccc(C#N)cc2)C1", "note": "(racemic) [Example 164, 4-((2-(3-(aminomethyl)-3-methylpyrrolidin-1-yl)-1H-benzo[d]imidazol-1-yl)methyl)benzonitrile]", "IC50": 253}, {"molecule": "N#Cc1ccc(Cn2c(N3C[C@H]4CC[C@@H](N)[C@H]4C3)nc3ccccc32)nc1", "note": "[Example 76, 6-((2-((3aR,4R,6aS)-4-aminohexahydrocyclopenta[c]pyrrol-2(1H)-yl)-1H-benzo[d]imidazol-1-yl)methyl)nicotinonitrile hydrochloride]", "IC50": 971}, {"molecule": "N[C@@H]1CN(c2nc3ccccc3n2Cc2ccc(Cl)cn2)CC[C@H]1F", "note": "[Example 211, (3R,4R)-1-(1-((5-chloropyridin-2-yl)methyl)-1H-benzo[d]imidazol-2-yl)-4-fluoropiperidin-3-amine hydrochloride]", "IC50": 1.09}]}]}
